In brackets after ≈: the same amount, converted by molar mass. Counter-ions that a name gives are not always drawn. Like-named read-outs stand apart in the source and are kept apart here. Marks after values point to notes of the source that are not given here.
Key:
MCF-7/TH [1] = assay: Cell cycle analysis by flow cytometry; assay type: cell-based, human; details: 1 μg/ml AMR, one range printed for MCF-7 and MCF-7/TH together
Procedure: (§1) Cell cycle analysis. The number of cells in each stage of the cell cycle was monitored by flow cytometric analysis of cellular DNA content after staining with 1 mg/ml propidium iodide (Chen, G. et al. Cancer Res, 1993, 53:2544-2547). Data was analyzed to determine the percentage of cells at each phase of the cell cycle (G0+G1, S, and G2+M).

MCF-10A [2] = assay: Cell cycle analysis by flow cytometry; assay type: cell-based, human; details: 1 μg/ml AMR
Procedure: as §1

MCF-7 [3] = assay: Cell cycle analysis by flow cytometry; assay type: cell-based, human; details: 1 μg/ml AMR, one range printed for MCF-7 and MCF-7/TH together
Procedure: as §1

[4] = test system: SW620 human tumor xenografts; assay: Xenograft studies with AMR in nude mice; assay type: in vivo; details: for Therapeutic ratio: Therapeutic Ratio = 100 - Tumor Growth Rate Index (GRI)
Procedure: Xenograft studies with AMR in nude mice. Male athymic nude (nu/nu) mice of the BALB/c strain (4-5 weeks old) were purchased from Taconic Labs, NY. SW620 colon carcinoma cells (10^6/site) in 0.1 ml of Hank's balanced salt solution were injected subcutaneously into the right flank of the nude mice using a 21 gauge needle. When the tumors reached approximately 0.5 cm^3 size in volume (usually 14 days), chemotherapy with AMR was started involving six animals in each group with almost similar size tumors. […] AMR was dissolved in 1:1 mixture of Cremophor EL and ethanol for administration and the control treatments were doxorubicin dissolved in phosphate dissolved saline and saline alone (0 mg/kg). Tumor size (length and width) was recorded on every fifth day of treatment along with body weight and survival data. Tumor volume was calculated using the following formula: […]
Tumor growth rate was calculated as mean V1/V0 where V1 is the volume on the evaluation day of treatment effect and V0 is that on the first day of treatment. The growth rate index and therapeutic index estimates were calculated using the following formulae:
Therapeutic Ratio=100—Tumor Growth Rate Index (GRI)

SW620 [5] = assay: MTT cytotoxicity assay (Examples 1-5); assay type: cell-based, human; details: mean ± SD (n = 3), read-out: AMR IC50
Text: Cell proliferation kit I (MTT) from Roche Diagnostics GmbH (Indianapolis, Ind.) was used for cytotoxicity assays and manufacturers protocol was followed for the assay.

CEM [6] = assay: MTT cytotoxicity assay (Examples 1-5); assay type: cell-based, human
Text: (§2) Cytotoxicity Assay (Examples 1-5). […] Cell proliferation kit I (MTT) from Roche Diagnostics GmbH (Indianapolis, Ind.) was used for cytotoxicity assays and manufacturers protocol was followed for the assay.

SW620/Ad-300 [7] = assay: MTT cytotoxicity assay (Examples 1-5); assay type: cell-based, human; details: for IC50: mean ± SD (n = 3)
Text: as §2

CEM/VLB [8] = assay: MTT cytotoxicity assay (Examples 1-5); assay type: cell-based, human
Text: as §2

MCF-7/TH [9] = assay: DNA fragmentation by agarose gel electrophoresis; assay type: cell-based, human
Procedure: (§3) Analysis of DNA fragmentation by agarose gel electrophoresis. To assess the pattern of DNA cleavage caused by AMR, agarose gel electrophoresis was performed as described by Cohen and Duke (Cohen, J. J. and Duke, R. C. J Immunol, 1984, 132:38-42). Briefly, control and drug-treated cells (2×10^6 cells) were lysed with 0.5 ml lysis buffer containing 0.2% Triton X-100 at room temperature for 30 minutes. The supernatant fractions were collected by centrifugation at 12,000×g for 30 minutes. The DNA in these fractions was precipitated overnight with 100 μl 5 M sodium chloride and 0.5 ml 2-isopropanol at −20° C. The DNA was dissolved in 20 μl of 10 mM Tris-HCl (pH 7.4) and 1 mM EDTA buffer. RNase (10 units) was added to the samples before incubating at 60° C. for 1 hour. An equal volume of loading buffer was added afterwards and the samples were subjected to electrophoresis on a 2% agarose gel in Tris borate buffer at 50 V for 3 hours. The agarose gel was stained with ethidium bromide, and DNA fragmentation pattern was visualized in a UV transilluminator. AMR-induced DNA fragmentation was also analyzed by TUNEL assay using in situ cell detection kit according to manufacturer's instructions. Briefly, cells were permeabilized in a solution containing 0.1% Triton X-100 and 0.1% (w/v) sodium citrate for 2 minutes. After washing in PBS, cells were incubated with label solution and terminal transferase. Cells were incubated without terminal deoxynucleotidyl transferase was used as negative control. DNase (1 μg/ml) treated cells incubated with label solution in the presence of terminal deoxynucleotidyl transferase (TUNEL reaction mixture) was used as positive control and the details of TUNEL assay have been described earlier (Ramachandran, C. et al. Anticancer Res, 1997, 17:3369-3376).

MCF-10A [10] = assay: DNA fragmentation by agarose gel electrophoresis; assay type: cell-based, human
Procedure: as §3

MCF-7 [11] = assay: DNA fragmentation by agarose gel electrophoresis; assay type: cell-based, human
Procedure: as §3

MCF-7/TH [12] = assay: Caspase-8 (LETD) activity by flow cytometry; assay type: cell-based, human; details: AMR 1-8 μg/ml, 48 hours
Procedure: (§4) Detection of apoptosis and caspase activity. Breast carcinoma or breast epithelial cells were incubated for 48 hours in the presence or absence of AMR (1-8 μg/ml). AMR-induced apoptosis was evaluated by Fluorescein Caspase (VAD) Activity Kit and caspase-8 (LETD) Activity Kit according to manufacturer's instructions ([…]-Calvo, M. et al. J Biol Chem, 1998, 273:32608-32613).

MCF-10A [13] = assay: Caspase-8 (LETD) activity by flow cytometry; assay type: cell-based, human; details: AMR 1-8 μg/ml, 48 hours
Procedure: as §4

MCF-7 [14] = assay: Caspase-8 (LETD) activity by flow cytometry; assay type: cell-based, human; details: AMR 1-8 μg/ml, 48 hours
Procedure: as §4

SW620 [15] = assay: DNA histogram analysis of cell cycle distribution; assay type: cell-based, human; details: AMR 0-2.5 μg/ml, 48 hours, up from 12.5% without AMR
Procedure: (§5) DNA Histogram Analysis. Following drug exposure for 48 hours, cells were centrifuged and resuspended in propidium iodide-hypotonic citrate solution for 1 hour before flow cytometric analysis of cell cycle distribution (Ramachandran, C. et al. Biochem Pharmacol, 1995, 49:545-552).

CEM [16] = assay: DNA histogram analysis of cell cycle distribution; assay type: cell-based, human; details: AMR 0-2.5 μg/ml, 48 hours, up from 18.0% without AMR
Procedure: as §5

SW620/Ad-300 [17] = assay: DNA histogram analysis of cell cycle distribution; assay type: cell-based, human; details: AMR 0-2.5 μg/ml, 48 hours, up from 15.6% without AMR
Procedure: as §5

CEM/VLB [18] = assay: DNA histogram analysis of cell cycle distribution; assay type: cell-based, human; details: AMR 0-2.5 μg/ml, 48 hours, up from 18.0% without AMR
Procedure: as §5

MCF-7/TH [19] = assay: MTT cytotoxicity assay (Examples 6-8); assay type: cell-based, human; details: 0-8 μg/ml AMR for 48 hours
Procedure: (§6) Cytotoxicity assay (Examples 6-8). MTT assay was used to determine drug sensitivity (Hansen, M. B. et al. J Immunol Methods, 1989, 119:203-210). Cells (1×10^4) were grown in 96-well plates and after 48 hours, the medium was replaced with new medium. The cells were incubated at 37° C. with varying concentrations of AMR for 48 hours at 37° C. Cell viability was then assayed by adding MTT dye (500 μg/ml). Six hours after incubation period, MTT containing medium was removed. The formazan crystals were dissolved in 100 μl/well dimethyl sulfoxide, and the plates were read in BIO-RAD Benchmark Microplate Reader at 570 nm wavelength. All experiments were repeated three times with three replications in each and the mean values were estimated. Student's t test was used to determine the significant difference between IC50 values.

MCF-10A [20] = assay: MTT cytotoxicity assay (Examples 6-8); assay type: cell-based, human; details: 0-8 μg/ml AMR for 48 hours
Procedure: as §6

MCF-7 [21] = assay: MTT cytotoxicity assay (Examples 6-8); assay type: cell-based, human; details: 0-8 μg/ml AMR for 48 hours
Procedure: as §6

MCF-7/TH [22] = assay: TUNEL assay of DNA fragmentation; assay type: cell-based, human
Procedure: as §3

MCF-10A [23] = assay: TUNEL assay of DNA fragmentation; assay type: cell-based, human
Procedure: as §3

MCF-7 [24] = assay: TUNEL assay of DNA fragmentation; assay type: cell-based, human
Procedure: as §3

SW620 [25] = assay: Cellular DOX content by flow cytometry; assay type: cell-based, human; details: DOX 2 μg/ml with 1 or 2 μg/ml AMR
Procedure: (§7) Cellular DOX Content. […] Cellular DOX fluorescence was analyzed in a Coulter Elite flow cytometer. Fluorescence emission (above 530 nm) from at least 10,000 cells were collected, amplified and scaled to generate a single parameter histogram (Ramachandran, C. et al. Biochem Phammacol, 1995, 49:545-552).

CEM [26] = assay: Cellular DOX content by flow cytometry; assay type: cell-based, human; details: DOX 2 μg/ml with 1 or 2 μg/ml AMR
Procedure: as §7

SW620/Ad-300 [27] = assay: Cellular DOX content by flow cytometry; assay type: cell-based, human; details: DOX 2 μg/ml with 1 and 2 μg/ml AMR
Procedure: as §7

CEM/VLB [28] = assay: Cellular DOX content by flow cytometry; assay type: cell-based, human; details: DOX 2 μg/ml with 1 and 2 μg/ml AMR
Procedure: as §7

## CC1(C)CC[C@]2(C(=O)O)CC[C@]3(C)C(=CC[C@@H]4[C@@]5(CO)CCC(=O)C(C)(C)[C@@H]5CC[C@]43C)[C@@H]2C1 [AMR, 25-hydroxy-3-oxoolean-12-en-28-oic acid]
MCF-7/TH [1]
  accumulation in G2+M phase population: 12.4%-32.2%
MCF-10A [2]
  G2/M phase arrest: does not induce any G2/M phase arrest
MCF-7 [3]
  accumulation in G2+M phase population: 12.4%-32.2%
[4]; 2 mg/kg
  Survival (%): 83.3%
  Therapeutic ratio: 61.3**
[4]; 5 mg/kg
  Survival (%): 57.1%
  Therapeutic ratio: 37.6**
[4]; 10 mg/kg
  Survival (%): 57.1%
  Therapeutic ratio: 41.9**
[4]; AMR 2-10 mg/kg intraperitoneal, compared to doxorubicin (2 mg/kg) or saline
  tumor growth rate: significantly reduced tumor growth rate
SW620 [5]
  IC50: 7.7 ± 0.15 µM
CEM [6]; mean ± SD (n = 3), read-out: AMR IC50
  IC50: 5.31 ± 0.02 µM
SW620/Ad-300 [7]; SW620/Ad-300
  Modulator Index (MI = fold decrease in resistance/modulator in μM concentration): 41.6
SW620/Ad-300 [7]; SW620/Ad-300, read-out: AMR IC50
  IC50: 12.7 ± 0.27 µM
SW620/Ad-300 [7]; SW620/Ad-300 versus SW620
  resistance to AMR: 1.6 fold
CEM/VLB [8]; CEM/VLB
  Modulator Index (MI = fold decrease in resistance/modulator in μM concentration): 40
CEM/VLB [8]; CEM/VLB versus CEM
  resistance to AMR: 1.9 fold
CEM/VLB [8]; CEM/VLB, mean ± SD (n = 3), read-out: AMR IC50
  IC50: 10.2 ± 0.11 µM
MCF-7/TH [9]; 1 μg/ml AMR for 48 hours
  DNA ladder pattern: highly visible
MCF-7/TH [9]; AMR treatment for 48 hours
  DNA ladder pattern: distinct ladder pattern
MCF-10A [10]; 1 μg/ml AMR for 48 hours
  DNA fragmentation: almost undetectable
MCF-10A [10]; AMR treatment for 48 hours
  DNA ladder pattern: less distinct
MCF-7 [11]; 1 μg/ml AMR for 48 hours
  DNA ladder pattern: highly visible
MCF-7 [11]; AMR treatment for 48 hours
  DNA ladder pattern: distinct ladder pattern
MCF-7/TH [12]
  cells with caspase activation (caspase-8 positive cells): 28.5-43.2%
MCF-10A [13]
  cells with caspase activation (caspase-8 positive cells): 4-32.8%
MCF-7 [14]
  cells with caspase activation (caspase-8 positive cells): 40.8-71%
SW620 [15]
  G2+M percentage: 59.5%
CEM [16]
  percentage of G2+M cells: 61.1%
SW620/Ad-300 [17]
  G2+M percentage: 52.8%
CEM/VLB [18]
  percentage of G2+M cells: 48.7%
MCF-7/TH [19]
  IC50: 6.8 µg/mL (≈ 14.4 µM)
MCF-10A [20]
  IC50: 6.9 µg/mL (≈ 14.7 µM)
MCF-7 [21]
  IC50: 3.8 µg/mL (≈ 8.07 µM)
MCF-7/TH [22]; AMR 1-8 μg/ml, 48 hours
  cells with DNA fragmentation (TUNEL): 32-48.7%
MCF-10A [23]; AMR 1-8 μg/ml, 48 hours
  cells with DNA fragmentation (TUNEL): 0-37.1%
MCF-7 [24]; AMR 1-8 μg/ml, 48 hours
  cells with DNA fragmentation (TUNEL): 37.3-72.1%
SW620 [25]
  cellular DOX fluorescence: No significant change
CEM [26]
  cellular DOX fluorescence: No significant change
SW620/Ad-300 [27]
  cellular DOX accumulation: increased cellular DOX accumulation in a dose-dependent manner
CEM/VLB [28]
  cellular DOX accumulation: increased cellular DOX accumulation in a dose-dependent manner

## COc1cccc2c1C(=O)c1c(O)c3c(c(O)c1C2=O)C[C@@](O)(C(=O)CO)C[C@@H]3O[C@H]1C[C@H](N)[C@H](O)[C@H](C)O1 [DOX, Doxorubicin hydrochloride, reference compound]
[4]; 2 mg/kg
  Survival (%): 83.3%
CEM [6]; Homo sapiens, CCRF-CEM, read-out: DOX IC50, 48 hours exposure
  IC50: 0.12 µg/mL
CEM [6]; Homo sapiens, CCRF-CEM, read-out: DOX IC50, mean ± SD (n = 3)
  IC50: 0.23 ± 0.02 µM
SW620/Ad-300 [7]; Homo sapiens, SW620/AD300, read-out: DOX IC50, SW620/Ad-300
  IC50: 28.9 ± 0.95 µM
SW620/Ad-300 [7]; SW620/Ad-300 versus SW620, based on IC50 values
  resistance to DOX: approximately 125 fold
CEM/VLB [8]; CEM/VLB versus CEM
  resistance to DOX: approximately 112 fold
CEM/VLB [8]; Homo sapiens, read-out: DOX IC50, CEM/VLB, 48 hours exposure
  IC50: 13.4 µg/mL
CEM/VLB [8]; Homo sapiens, read-out: DOX IC50, CEM/VLB, mean ± SD (n = 3)
  IC50: 23.1 ± 0.78 µM

## DNase [reference compound]
MCF-7/TH [22]; DNase-treated positive control
  apoptotic cells (TUNEL): more than 95%
MCF-10A [23]; DNase-treated positive control
  apoptotic cells (TUNEL): more than 95%
MCF-7 [24]; DNase-treated positive control
  apoptotic cells (TUNEL): more than 95%
